Experimental data taken from patent US8377706B2, “Olfactory receptor-functionalized transistors for highly selective bioelectronic nose and biosensor using the same” (Seoul National University Industry Foundation, priority 2008, dated 2013).

Columns and labels:
[1] = target: T1, human olfactory receptor 2AG1 (hOR2AG1) protein (Homo sapiens, UniProt Q9H205); assay: Conductance (source-drain current) measurement of biosensor using hOR2AG1-functionalized swCNT transistors after introduction of odorants; format: biochemical; settings: for Detection Limit: lipid membranes with hOR2AG1 on swCNT-FET, odorant solution in PBS, bias 100 mV
T1 construct: made in house; host or cells: Escherichia coli
T1 sequence (Q9H205 1-316): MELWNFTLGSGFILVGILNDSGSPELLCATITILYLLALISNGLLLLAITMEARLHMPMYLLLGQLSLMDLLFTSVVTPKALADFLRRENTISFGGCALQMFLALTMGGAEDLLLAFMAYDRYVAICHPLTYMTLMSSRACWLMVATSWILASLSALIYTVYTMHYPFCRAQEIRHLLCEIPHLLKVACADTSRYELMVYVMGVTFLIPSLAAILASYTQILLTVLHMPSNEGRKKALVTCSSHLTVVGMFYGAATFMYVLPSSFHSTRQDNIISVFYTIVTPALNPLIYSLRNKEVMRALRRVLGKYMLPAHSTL
Procedure: 1 μl of the hOR2AG1-containing fraction collected in Example 1 was evenly spread to cover the swCNTs and electrodes, and vacuum-dried for 4 hours to fix the hOR2AG1, thereby manufacturing human olfactory receptor-functionalized carbon nanotube transistors.
(§1) To measure the effects of odorants on the biosensor using human olfactory receptor functionalized transistors, drops of 9 μl phosphate buffered saline (PBS) were placed onto the human olfactory receptor functionalized transistors manufactured in […]. Subsequently, the source-drain current was monitored after the introduction of a solution containing specific odorants. A bias voltage of 100 mV was maintained at all time during the electrical measurement (See FIG. 8).
A 1 M stock solution of the odorants was prepared, and additional dilutions (from 10^−1 M to 10^−13 M) were obtained by serial 1:10 dilutions in PBS.
Butyl butyrate, phenyl valerate, and propyl butyrate were introduced at various concentrations on the biosensors using hOR2AG1 functionalized transistors manufactured in Example 2 of the present invention, each of the conductance modulations was measured, and the results were recorded in FIGS. 14 to 16, respectively. The arrows illustrated in FIGS. 14 to 16 show time points of introduction of each odorant.

[2] = Control: conductance measurement on bare carbon nanotube transistors; settings: bare CNT
Procedure: as §1
(§2) The results are shown in FIGS. 12 and 13, respectively. As shown respectively in FIGS. 12 and 13, each of the conductance modulations was observed on the biosensors using modified carbon nanotube transistors with lipid membranes in which hOR2AG1 was not included and bare carbon nanotube transistors, after the introduction of amyl butyrate at 100 mM.

[3] = Control: conductance measurement on carbon nanotube transistors with lipid membranes in which hOR2AG1 was not included; settings: lipid membranes without olfactory receptors
Procedure: as §1, §2

[4] = target: T2, hOR2AG1 (Homo sapiens, UniProt Q9H205); settings: known; cited from earlier work
T2 sequence (Q9H205 1-316): T1 sequence (Q9H205 1-316)

| Source-drain current after introduction of odorant ([1]; 100 fM, 1 pM, 10 pM and 100 pM (FIG. 10)) | Detection Limit [1] | Effect on biosensor conductance ([1]; odorant at 1 pM (FIG. 11)) | Effect on biosensor conductance ([1]; odorant at 100 μM (FIG. 11)) | Structure (SMILES) | Detection Limit [2] | Detection Limit [3] | Activation of hOR2AG1 [4] |
| --- | --- | --- | --- | --- | --- | --- | --- |
| sharply decreased | 1e-10 mM | sharply decreased | – | CCCCCOC(=O)CCC [Amyl butyrate (AB), amyl butyrate] | 100 mM | 100 mM | activated |
| – | 10 mM | – | did not affect the biosensor | CCCCOC(=O)CCC [Butyl butyrate (BB), butyl butyrate] | – | – | – |
| – | 10 mM | – | did not affect the biosensor | CCCCCOC(=O)CCCC [Pentyl valerate (PV), pentyl valerate] | – | – | – |

| Structure (SMILES) | Source-drain current after introduction of odorant ([1]; 100 fM, 1 pM, 10 pM and 100 pM (FIG. 10)) | Detection Limit [1] | Effect on biosensor conductance ([1]; odorant at 1 pM (FIG. 11)) | Effect on biosensor conductance ([1]; odorant at 100 μM (FIG. 11)) | Detection Limit [2] | Detection Limit [3] | Activation of hOR2AG1 [4] |
| --- | --- | --- | --- | --- | --- | --- | --- |
| CCCOC(=O)CCC [Propyl butyrate (PB), propyl butyrate] | – | 10 mM | – | did not affect the biosensor | – | – | – |
